Values after ≈ are worked out from the molar mass of the structure shown.
Experiments:
Assay type in all cases: cell-based
[1] = system: Pasteurella multocida (Kobe-6); assay: Antibacterial activity (IC), agar as in Example 8 (Example 17, Table 50); conditions: 18 h, origin pig
Description: (§1) The antibacterial action was evaluated by the inhibitory concentration (hereinafter abbreviated as IC) at which propagation of the bacteria cultured at 37°C for 18 hours was inhibited. Inhibition was determined by the turbidity of the medium. The expressions "IC≤100", "≤10", and "≤1" indicate that MIC-equivalent values obtained at the succesive […] dilution of the sample are 100-10 µg/ml, 10-1 µg/ml, and not more than 1 µg/ml, respectively. […] (In the subsequent Examples, the same rule applies correspondingly.) Table 39
(§2) A suitable amount of a sample was dissolved in dimethylsulfoxide (DMSO), after which the resulting solution was diluted with the same amount of sterilized distilled water to prepare a bulk sample of 1,000 µg/ml. Separately, a bacterial liquid for the test (methicillin-resistant Staphylococcus aureus (MRSA) isolated from humans) which had been cultured in Mueller-Hinton broth (product of DIFCO) was prepared and inoculated to a Mueller-Hinton agar (product of DIFCO) containing the sample so that the final inoculation amount of 10^6 CFU/ml was achieved. The final concentrations of the samples were 100, 10, and 1 µg/ml.
(§3) After culturing at 37°C for 18 hours, the antibacterial activity was evaluated in terms of IC in a manner similar to that described in Example 4.
In a manner similar to that described in Example 8, antibacterial activity of the invention compound was determined. The bacterium used for the test was Pasteurella Kobe-6 (origin: pig, Pasteurella multocida).

[2] = system: Staphylococcus aureus (209-P); assay: Antibacterial activity (IC), agar as in Example 8 (Example 15, Table 48); conditions: 18 h
Description: as §1, §2, §3
The bacterium used for the test was Staphylococcus aureus (209-P).

[3] = system: Staphylococcus aureus 209-P; assay: Antibacterial activity (IC), Mueller-Hinton broth, 96-well microplate (Example 4, Table 39); conditions: 37°C, 18 hours
Description: (§4) A suitable amount of a sample was dissolved in dimethylsulfoxide (DMSO), and the resultant solution was diluted with the same amount of sterilized distilled water to prepare a bulk sample of 1,000 µg/ml. Mueller-Hinton broth (product of DIFCO) was dispensed into each well of 96-well microplate. Thereafter, the bulk specimen was added to the first well of a row, and successively diluted (10-fold each time) with sterilized distilled water. Separately, a bacterial cell suspension for the test (Staphylococcus aureus 209-P) which had been cultured in the above-mentioned broth overnight at 37°C was inoculated to each well so that the final inoculation amount of 10^6 CFU/ml was attained. The final concentrations of the samples were 100, 10, and 1 µg/ml.
as §1

[4] = system: Staphylococcus aureus TI-1; assay: Antibacterial activity (IC), broth microplate as in Example 4 (Example 5, Table 40); conditions: TI1, 18 h
Description: as §4, §1
In a manner similar to that described in Example 4, antibacterial activity of the invention compound was determined. The bacterium used for the test was Staphylococcus aureus TI-1.

[5] = system: Streptococcus aureus (TI-1); assay: Antibacterial activity (IC), agar as in Example 8 (Example 16, Table 49); conditions: 18 h
Description: as §1, §2, §3
In a manner similar to that described in Example 8, antibacterial activity of the invention compound was determined. The bacterium used for the test was […] aureus (TI-1).

Structure (SMILES) | MIC [1] | MIC [2] | MIC [3] | MIC [4] | MIC [5]
CC(Oc1cc(Oc2ccc(C(F)(F)F)cc2Cl)ccc1Cl)C(=O)C(C#N)c1ccccc1 (stereo not drawn) [compound 156] | 10 to 100 µg/mL (≈ 20.2 to 202 µM) | 1 to 10 µg/mL (≈ 2.02 to 20.2 µM) |  |  | 
CC(Oc1ccc(Oc2ncc(C(F)(F)F)cc2Cl)cc1)C(=O)C(C#N)c1c(F)cccc1Cl (stereo not drawn) [compound 24] |  |  | 10 to 100 µg/mL (≈ 19.5 to 195 µM) | 10 to 100 µg/mL (≈ 19.5 to 195 µM) | 
N#CC(C(=O)COc1ccc(Oc2ccc(C(F)(F)F)cn2)cc1)c1cccc(Cl)c1 (stereo not drawn) [Compound No. 13] |  |  | 10 to 100 µg/mL (≈ 22.4 to 224 µM) | 10 to 100 µg/mL (≈ 22.4 to 224 µM) | 
CC(Oc1cc(Oc2ccc(C(F)(F)F)cc2Cl)ccc1Cl)C(=O)C(C#N)C(=O)N(C)c1ccccc1 (stereo not drawn) [compound 175] |  | 1 to 10 µg/mL (≈ 1.81 to 18.1 µM) |  |  | 
CC(Oc1ccc(Oc2ncc(C(F)(F)F)cc2Cl)cc1)C(=O)C(C#N)c1c(F)cccc1F (stereo not drawn) [compound 28] |  |  |  | 10 to 100 µg/mL (≈ 20.1 to 201 µM) | 
CC(Oc1cccc(Oc2ccc(C(F)(F)F)cn2)c1)C(=O)C(C#N)c1ccc(Cl)c(Cl)c1 (stereo not drawn) [Compound No. 102, 2-(3,4-dichlorophenyl)-3-oxo-4-[3-(5-trifluoromethyl-2-pyridyloxy)phenoxy]pentanonitrile] |  | 1 to 10 µg/mL (≈ 2.02 to 20.2 µM) |  |  | ≤ 1 µg/mL
CC(Oc1ccc(Oc2ncc(C(F)(F)F)cc2Cl)cc1)C(=O)C(C#N)c1c(Cl)cccc1Cl (stereo not drawn) [compound 23] |  |  | 10 to 100 µg/mL (≈ 18.9 to 189 µM) |  | 
CC(Oc1cc(Oc2ccc(C(F)(F)F)cc2Cl)ccc1Cl)C(=O)C(C#N)C(=O)N1CCCCC1 (stereo not drawn) [compound 170] | 10 to 100 µg/mL (≈ 18.9 to 189 µM) | 1 to 10 µg/mL (≈ 1.89 to 18.9 µM) |  |  | 1 to 10 µg/mL (≈ 1.89 to 18.9 µM)
CC(Oc1ccc(Oc2nc3ccccc3s2)cc1)C(=O)C(C#N)c1ccc(Cl)cc1Cl (stereo not drawn) [Compound No. 11] |  |  | 10 to 100 µg/mL (≈ 20.7 to 207 µM) | 10 to 100 µg/mL (≈ 20.7 to 207 µM) | 
CC(Oc1ccc(Oc2ncc(C(F)(F)F)cc2Cl)cc1)C(=O)C(C#N)c1nc(Cl)cc(Cl)n1 (stereo not drawn) [compound 21] |  |  | 10 to 100 µg/mL (≈ 18.8 to 188 µM) | 1 to 10 µg/mL (≈ 1.88 to 18.8 µM) | 
COc1ccc(C(C#N)C(=O)C(C)Oc2cccc(Oc3ccc(C(F)(F)F)cc3Cl)c2)cc1 (stereo not drawn) [Compound No. 107, 4-[3-(2-chloro-4-trifluoromethylphenoxy)-phenoxy]-2-(4-methoxyphenyl)-3-oxopentanonitrile] |  | 10 to 100 µg/mL (≈ 20.4 to 204 µM) |  |  | 10 to 100 µg/mL (≈ 20.4 to 204 µM)
CC(Oc1ccc(Oc2ncc(C(F)(F)F)cc2Cl)cc1)C(=O)C(C#N)c1cccs1 (stereo not drawn) [compound 19] |  |  | 10 to 100 µg/mL (≈ 21.4 to 214 µM) | 10 to 100 µg/mL (≈ 21.4 to 214 µM) | 
CC(Oc1cc(Oc2ccc(C(F)(F)F)cc2Cl)ccc1Cl)C(=O)C(C#N)c1ccc(Cl)cc1Cl (stereo not drawn) [compound 151] | 10 to 100 µg/mL (≈ 17.8 to 178 µM) | ≤ 1 µg/mL |  |  | ≤ 1 µg/mL
CC(Oc1cc(Oc2ccc(C(F)(F)F)cc2Cl)ccc1[N+](=O)[O-])C(=O)C(C#N)C(=O)N1CCOCC1 (stereo not drawn) [compound 137] | 10 to 100 µg/mL (≈ 18.5 to 185 µM) | 10 to 100 µg/mL (≈ 18.5 to 185 µM) |  |  | 10 to 100 µg/mL (≈ 18.5 to 185 µM)
CC(Oc1cccc(Oc2ccc(C(F)(F)F)cc2Cl)c1)C(=O)C(C#N)C(=O)N1CCCCC1 (stereo not drawn) [compound 208] |  | 1 to 10 µg/mL (≈ 2.02 to 20.2 µM) |  |  | 1 to 10 µg/mL (≈ 2.02 to 20.2 µM)
CC(Oc1ccc(Oc2ccc(C(F)(F)F)cc2Cl)cc1)C(=O)C(C#N)C(=O)N(C)c1ccccc1 (stereo not drawn) [Compound No. 36, 4-[4-(2-chloro-4-trifluoromethylphenoxy)phenoxy]-2-methylphenylamidecarbonile-3-oxopentanitrile] |  |  |  | 1 to 10 µg/mL (≈ 1.93 to 19.3 µM) | 
CC(Oc1ccc(Oc2ncc(C(F)(F)F)cc2Cl)cc1)C(=O)C(C#N)c1cc(F)ccc1F (stereo not drawn) [compound 26] |  |  | 10 to 100 µg/mL (≈ 20.1 to 201 µM) | 10 to 100 µg/mL (≈ 20.1 to 201 µM) | 

Source: patent EP0768085A1, “ANTIBACTERIAL AGENT” (DAIICHI PHARMACEUTICAL CO., LTD., priority 1994, dated 1996)
